Laboratory results: patent EP0195841A1, “Quinolinecarboxylic acid derivatives and process for their preparation” (KYORIN PHARMACEUTICAL CO., LTD., priority 1985, dated 1986)
Values after ≈ are worked out from the molar mass of the structure shown.

Experiments:
Experiment in all cases: Antibacterial spectra, MIC by standard method of Japan Society of Chemotherapy
Assay type in all cases: cell-based
[1] = test system: Salmonella enteritidis IID 604; conditions: Gram −, 10^6 cells/ml; for MIC: Salmonella enterica, read-out: Minimum Inhibitory Concentration
[2] = test system: Citrobacter freundii IID 976; conditions: 10^6 cells/ml; for ratio of activity per that of Ciprofloxacin (bracketed number): Gram −; for MIC: IID976, Gram −, read-out: Minimum Inhibitory Concentration
S. epidermidis IID 866 = conditions: 10^6 cells/ml; for ratio of activity per that of Ciprofloxacin (bracketed number): Gram +; for MIC: Staphylococcus epidermidis, IID866, Gram +, read-out: Minimum Inhibitory Concentration
[3] = test system: Acinetobacter anitratus IID 876; conditions: 10^6 cells/ml; for MIC: Acinetobacter calcoaceticus, IID876, Gram −, read-out: Minimum Inhibitory Concentration; for ratio of activity per that of Ciprofloxacin (bracketed number): Gram −
P. mirabilis IID 994 = conditions: 10^6 cells/ml; for ratio of activity per that of Ciprofloxacin (bracketed number): Gram −; for MIC: Proteus mirabilis, IID994, Gram −, read-out: Minimum Inhibitory Concentration
[4] = test system: Bacteroides fragilis 25285; conditions: Gram −, 10^6 cells/ml; for MIC: read-out: Minimum Inhibitory Concentration
[5] = test system: Bacteroides fragilis 0558; conditions: Gram −, 10^6 cells/ml; for MIC: read-out: Minimum Inhibitory Concentration
[6] = test system: Yersinia enterocolitica IID 981; conditions: 10^6 cells/ml; for ratio of activity per that of Ciprofloxacin (bracketed number): Gram −; for MIC: IID981, Gram −, read-out: Minimum Inhibitory Concentration
S. pneumoniae 2054 = conditions: Gram +, 10^6 cells/ml
[7] = test system: Staphylococcus aureus 209 P; conditions: Gram +, 10^6 cells/ml; for MIC: read-out: Minimum Inhibitory Concentration
[8] = test system: Bacteroides fragilis GM 7000; conditions: 10^6 cells/ml; for MIC: GM7000, Gram −, read-out: Minimum Inhibitory Concentration; for ratio of activity per that of Ciprofloxacin (bracketed number): Gram −
S. faecalis IID 682 = conditions: 10^6 cells/ml; for MIC: Enterococcus faecalis, IID682, Gram +, read-out: Minimum Inhibitory Concentration; for ratio of activity per that of Ciprofloxacin (bracketed number): Gram +
[9] = test system: Serratia marcescens IID 618; conditions: 10^6 cells/ml; for ratio of activity per that of Ciprofloxacin (bracketed number): Gram −; for MIC: IID618, Gram −, read-out: Minimum Inhibitory Concentration
E. coli NIHJ JC-2 = conditions: for ratio of activity per that of Ciprofloxacin (bracketed number): E. coli NIHJ JC-2, Gram −, 10^6 cells/ml
Shigella sonnei IID 969 = conditions: 10^6 cells/ml; for ratio of activity per that of Ciprofloxacin (bracketed number): Gram −
Method: Experiment 1. Antibacterial spectra
Antibacterial activity was determined with the standard method recommended by Japan Society of Chemotherapy.

[10] = test system: Alcaligenes faecalis 0104002; conditions: Gram −, 10^6 cells/ml; for MIC: read-out: Minimum Inhibitory Concentration
[11] = test system: Klebsiella pneumoniae KY 6445; conditions: 10^6 cells/ml; for ratio of activity per that of Ciprofloxacin (bracketed number): Gram −
[12] = test system: Pseudomonas aeruginosa V-1; conditions: 10^6 cells/ml; for ratio of activity per that of Ciprofloxacin (bracketed number): Gram −; for MIC: V1, Gram −, read-out: Minimum Inhibitory Concentration
[13] = test system: S. pyogenes IID 689 (S-8); conditions: 10^6 cells/ml; for ratio of activity per that of Ciprofloxacin (bracketed number): Gram +
[14] = test system: Streptococcus pyogenes IID 692; conditions: 10^6 cells/ml; for ratio of activity per that of Ciprofloxacin (bracketed number): Gram +; for MIC: IID692, Gram +, read-out: Minimum Inhibitory Concentration
E. coli ATCC 10536 = conditions: 10^6 cells/ml; for MIC: Escherichia coli, ATCC10536, Gram −, read-out: Minimum Inhibitory Concentration; for ratio of activity per that of Ciprofloxacin (bracketed number): Gram −
[15] = test system: Bacillus subtilis PCI 219; conditions: 10^6 cells/ml; for ratio of activity per that of Ciprofloxacin (bracketed number): Gram +; for MIC: PCI219, Gram +, read-out: Minimum Inhibitory Concentration
[16] = test system: Enterobacter cloacae IID 977; conditions: 10^6 cells/ml; for ratio of activity per that of Ciprofloxacin (bracketed number): Gram −; for MIC: IID977, Gram −, read-out: Minimum Inhibitory Concentration
[17] = test system: Proteus vulgaris IFO 3167; conditions: Proteus vulgaris IFO 3167, Gram −, 10^6 cells/ml; for MIC: IFO3167, read-out: Minimum Inhibitory Concentration
[18] = test system: Pseudomonas aeruginosa IFO 12689; conditions: 10^6 cells/ml; for ratio of activity per that of Ciprofloxacin (bracketed number): Gram −; for MIC: IFO12689, Gram −, read-out: Minimum Inhibitory Concentration
[19] = test system: S. aureus IID 670 (Terajima); conditions: 10^6 cells/ml; for ratio of activity per that of Ciprofloxacin (bracketed number): Gram +; for MIC: Staphylococcus aureus, IID670, Gram +, read-out: Minimum Inhibitory Concentration
P. morganii IID 602 = conditions: 10^6 cells/ml; for ratio of activity per that of Ciprofloxacin (bracketed number): Gram −; for MIC: Morganella morganii, IID602, Gram −, read-out: Minimum Inhibitory Concentration

SMILES: O=C(O)c1cn(C2CC2)c2c(F)c(N3CCNCC3)c(F)cc2c1=O [Reference- 1, 1-Cyclopropyl-6,8-difluoro-1,4-dihydro-4-oxo-7-(1-piperazinyl)quinoline-3-carboxylic acid, reference compound]
- MIC [1]: 0.0125 µg/mL (≈ 0.0358 µM)
- ratio of activity per that of Ciprofloxacin (bracketed number) [2]: 0.5
- MIC [2]: 0.0125 µg/mL (≈ 0.0358 µM)
- ratio of activity per that of Ciprofloxacin (bracketed number) (S. epidermidis IID 866): 2
- MIC (S. epidermidis IID 866): 0.2 µg/mL (≈ 0.573 µM)
- MIC [3]: 0.0125 µg/mL (≈ 0.0358 µM)
- ratio of activity per that of Ciprofloxacin (bracketed number) [3]: 2
- ratio of activity per that of Ciprofloxacin (bracketed number) (P. mirabilis IID 994): 2
- MIC (P. mirabilis IID 994): ≤ 0.006 µg/mL
- MIC [4]: 0.78 µg/mL (≈ 2.23 µM)
- ratio of activity per that of Ciprofloxacin (bracketed number) [5]: 4
- MIC [5]: 0.78 µg/mL (≈ 2.23 µM)
- ratio of activity per that of Ciprofloxacin (bracketed number) [6]: 2
- MIC [6]: 0.025 µg/mL (≈ 0.0716 µM)
- ratio of activity per that of Ciprofloxacin (bracketed number) (S. pneumoniae 2054): 2
- ratio of activity per that of Ciprofloxacin (bracketed number) [7]: 2
- MIC [7]: 0.2 µg/mL (≈ 0.573 µM)
- MIC [8]: 1.56 µg/mL (≈ 4.47 µM)
- ratio of activity per that of Ciprofloxacin (bracketed number) [8]: 2
- MIC (S. faecalis IID 682): 0.78 µg/mL (≈ 2.23 µM)
- ratio of activity per that of Ciprofloxacin (bracketed number) (S. faecalis IID 682): 1
- ratio of activity per that of Ciprofloxacin (bracketed number) [9]: 4
- MIC [9]: 0.1 µg/mL (≈ 0.286 µM)
- ratio of activity per that of Ciprofloxacin (bracketed number) (E. coli NIHJ JC-2): 1
- ratio of activity per that of Ciprofloxacin (bracketed number) (Shigella sonnei IID 969): 1
- ratio of activity per that of Ciprofloxacin (bracketed number) [10]: 2
- MIC [10]: 0.02 µg/mL (≈ 0.0573 µM)
- ratio of activity per that of Ciprofloxacin (bracketed number) [11]: 1
- ratio of activity per that of Ciprofloxacin (bracketed number) [12]: 1
- MIC [12]: 0.2 µg/mL (≈ 0.573 µM)
- ratio of activity per that of Ciprofloxacin (bracketed number) [13]: 1
- ratio of activity per that of Ciprofloxacin (bracketed number) [14]: 1
- MIC [14]: 0.78 µg/mL (≈ 2.23 µM)
- MIC (E. coli ATCC 10536): 0.0125 µg/mL (≈ 0.0358 µM)
- ratio of activity per that of Ciprofloxacin (bracketed number) (E. coli ATCC 10536): 1
- ratio of activity per that of Ciprofloxacin (bracketed number) [15]: 2
- MIC [15]: 0.025 µg/mL (≈ 0.0716 µM)
- ratio of activity per that of Ciprofloxacin (bracketed number) [16]: 2
- MIC [16]: 0.025 µg/mL (≈ 0.0716 µM)
- MIC [17]: ≤ 0.006 µg/mL
- ratio of activity per that of Ciprofloxacin (bracketed number) [17]: 1
- ratio of activity per that of Ciprofloxacin (bracketed number) [18]: 1
- MIC [18]: 0.39 µg/mL (≈ 1.12 µM)
- ratio of activity per that of Ciprofloxacin (bracketed number) [19]: 2
- MIC [19]: 0.2 µg/mL (≈ 0.573 µM)
- ratio of activity per that of Ciprofloxacin (bracketed number) (P. morganii IID 602): 2
- MIC (P. morganii IID 602): 0.025 µg/mL (≈ 0.0716 µM)

SMILES: CN1CCN(c2c(F)cc3c(=O)c(C(=O)O)cn(C4CC4)c3c2F)CC1 [Reference- 2, 1-Cyclopropyl-6,8-difluoro-1,4-dihydro-7-(4-methyl-1-piperazinyl)-4-oxoquinoline-3-carboxylic acid, reference compound]
- ratio of activity per that of Ciprofloxacin (bracketed number) [1]: 0.5
- MIC [1]: 0.05 µg/mL (≈ 0.138 µM)
- ratio of activity per that of Ciprofloxacin (bracketed number) [2]: 0.25
- MIC [2]: 0.025 µg/mL (≈ 0.0688 µM)
- ratio of activity per that of Ciprofloxacin (bracketed number) (S. epidermidis IID 866): 2
- MIC (S. epidermidis IID 866): 0.2 µg/mL (≈ 0.55 µM)
- MIC [3]: 0.0125 µg/mL (≈ 0.0344 µM)
- ratio of activity per that of Ciprofloxacin (bracketed number) [3]: 2
- ratio of activity per that of Ciprofloxacin (bracketed number) (P. mirabilis IID 994): 0.5
- MIC (P. mirabilis IID 994): 0.025 µg/mL (≈ 0.0688 µM)
- ratio of activity per that of Ciprofloxacin (bracketed number) [4]: 8
- MIC [4]: 0.39 µg/mL (≈ 1.07 µM)
- MIC [5]: 0.39 µg/mL (≈ 1.07 µM)
- ratio of activity per that of Ciprofloxacin (bracketed number) [6]: 1
- MIC [6]: 0.05 µg/mL (≈ 0.138 µM)
- ratio of activity per that of Ciprofloxacin (bracketed number) (S. pneumoniae 2054): 2
- MIC (S. pneumoniae 2054; Streptococcus pneumoniae, read-out: Minimum Inhibitory Concentration): 0.78 µg/mL (≈ 2.15 µM)
- ratio of activity per that of Ciprofloxacin (bracketed number) [7]: 4
- MIC [7]: 0.1 µg/mL (≈ 0.275 µM)
- MIC [8]: 0.78 µg/mL (≈ 2.15 µM)
- ratio of activity per that of Ciprofloxacin (bracketed number) [8]: 4
- MIC (S. faecalis IID 682): 0.78 µg/mL (≈ 2.15 µM)
- ratio of activity per that of Ciprofloxacin (bracketed number) (S. faecalis IID 682): 1
- ratio of activity per that of Ciprofloxacin (bracketed number) [9]: 1
- MIC [9]: 0.39 µg/mL (≈ 1.07 µM)
- ratio of activity per that of Ciprofloxacin (bracketed number) (E. coli NIHJ JC-2): 0.5
- MIC (E. coli NIHJ JC-2; Escherichia coli, NIHJJC2, read-out: Minimum Inhibitory Concentration): 0.0125 µg/mL (≈ 0.0344 µM)
- ratio of activity per that of Ciprofloxacin (bracketed number) (Shigella sonnei IID 969): 0.5
- MIC (Shigella sonnei IID 969; IID969, Gram −, read-out: Minimum Inhibitory Concentration): 0.0125 µg/mL (≈ 0.0344 µM)
- MIC [10]: 0.02 µg/mL (≈ 0.055 µM)
- ratio of activity per that of Ciprofloxacin (bracketed number) [11]: 1
- MIC ([11]; KY6445, Gram −, read-out: Minimum Inhibitory Concentration): 0.0125 µg/mL (≈ 0.0344 µM)
- ratio of activity per that of Ciprofloxacin (bracketed number) [12]: 0.5
- MIC [12]: 0.39 µg/mL (≈ 1.07 µM)
- ratio of activity per that of Ciprofloxacin (bracketed number) [13]: 0.5
- MIC ([13]; Streptococcus pyogenes, IID689, Gram +, read-out: Minimum Inhibitory Concentration): 0.78 µg/mL (≈ 2.15 µM)
- ratio of activity per that of Ciprofloxacin (bracketed number) [14]: 1
- MIC [14]: 0.78 µg/mL (≈ 2.15 µM)
- MIC (E. coli ATCC 10536): 0.0125 µg/mL (≈ 0.0344 µM)
- ratio of activity per that of Ciprofloxacin (bracketed number) (E. coli ATCC 10536): 1
- ratio of activity per that of Ciprofloxacin (bracketed number) [15]: 1
- MIC [15]: 0.05 µg/mL (≈ 0.138 µM)
- ratio of activity per that of Ciprofloxacin (bracketed number) [16]: 1
- MIC [16]: 0.05 µg/mL (≈ 0.138 µM)
- MIC [17]: 0.025 µg/mL (≈ 0.0688 µM)
- ratio of activity per that of Ciprofloxacin (bracketed number) [17]: 0.25
- ratio of activity per that of Ciprofloxacin (bracketed number) [18]: 1
- MIC [18]: 0.39 µg/mL (≈ 1.07 µM)
- ratio of activity per that of Ciprofloxacin (bracketed number) [19]: 2
- MIC [19]: 0.2 µg/mL (≈ 0.55 µM)
- ratio of activity per that of Ciprofloxacin (bracketed number) (P. morganii IID 602): 1
- MIC (P. morganii IID 602): 0.05 µg/mL (≈ 0.138 µM)
